Literature values as cited in patent US5198463A, “Oxytocin antagonists” (Merck & Co., Inc., priority 1992, dated 1993).

Test system: Chinese cabbage seedlings
Conditions: reported by T. Sassa et al.

COc1c(C(O)CC(C)C)ccc2c1C(=O)OCc1cc(C)cc(O)c1O2 (stereo not shown) [Compound IA, penicillide]
growth of Chinese cabbage seedlings: markedly inhibits the growth
